Laboratory results published in PubChem BioAssay (NCI).
Values joined by “and” are separate entries in the source; they are usually repeats but may differ in a detail not shown here. Equal values may be shown once.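 Five concentrations, 48 hours, 96-well plates. The concentration for 50% growth inhibition is given as GI50. At the TGI there is no net growth.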

Tests used:
Experiment in all cases: NCI-60 cell line screen, 48 h
BT-549 breast = tested on: BT-549 breast
OVCAR-4 ovarian = tested on: OVCAR-4 ovarian
M14 melanoma = tested on: M14 melanoma
MDA-MB-435 = tested on: MDA-MB-435
UO-31 renal = tested on: UO-31 renal
SF-295 CNS = tested on: SF-295 CNS
K-562 leukemia = tested on: K-562 leukemia
U251 CNS = tested on: U251 CNS
OVCAR-5 ovarian = tested on: OVCAR-5 ovarian
SK-MEL-2 melanoma = tested on: SK-MEL-2 melanoma

SMILES | TGI (BT-549 breast) | TGI (OVCAR-4 ovarian) | TGI (M14 melanoma) | TGI (MDA-MB-435) | TGI (UO-31 renal) | TGI (SF-295 CNS) | TGI (K-562 leukemia) | TGI (U251 CNS) | TGI (OVCAR-5 ovarian) | TGI (SK-MEL-2 melanoma) | GI50 (BT-549 breast) | GI50 (M14 melanoma) | GI50 (MDA-MB-435) | GI50 (UO-31 renal) | GI50 (SF-295 CNS) | GI50 (K-562 leukemia) | GI50 (U251 CNS) | GI50 (OVCAR-5 ovarian) | GI50 (SK-MEL-2 melanoma)
c1c[nH]c(C23C4C5C6C4C2C6C53)n1 (centres undefined) | > 100 µM | > 100 µM | > 100 µM | > 100 µM | > 100 µM | > 100 µM | > 100 µM | > 100 µM | > 100 µM | > 100 µM | – | – | – | – | – | – | – | – | –
O=C1OC(=O)c2cc(S(=O)(=O)c3ccc4c(c3)C(=O)OC4=O)ccc21 | > 100 µM | > 100 µM | > 100 µM | > 100 µM | > 100 µM | > 100 µM | > 100 µM | > 100 µM | > 100 µM | > 100 µM | – | – | – | – | – | – | – | – | –
O=c1c(=O)c2c(Br)sc(Br)c2c1=O | 36.6 µM | 31.2 µM | 34.3 µM | 37.7 µM | 51.4 µM | > 100 µM | 51 µM | 61 µM | 39.8 µM | 41.1 µM | – | – | – | – | – | – | – | – | –
O=C1c2cc(Cl)ccc2NC(=NCCCl)C2CSCN12 (centres undefined) | > 100 µM | > 100 µM | > 100 µM | > 100 µM | > 100 µM | > 100 µM | > 100 µM | > 100 µM | > 100 µM | > 100 µM | – | – | – | – | – | – | – | – | –
Nc1nn2c(nc(N)c3c(N)[nH]nc32)c1N=Nc1ccc(Br)cc1 | 15.5 µM | > 92.6 µM | > 53.6 µM | > 27.9 µM | > 100 µM | > 100 µM | > 100 µM | 30.7 µM | > 96.2 µM | 36.5 µM | – | – | – | – | – | – | – | – | –
CN(c1ccccc1Cl)S(=O)(=O)c1ccc([N+](=O)[O-])cc1 | > 100 µM | > 100 µM | > 100 µM | > 100 µM | > 100 µM | > 100 µM | > 100 µM | > 100 µM | > 100 µM | > 100 µM | – | – | – | – | – | – | – | – | –
CC1=C(C(=O)c2ccccc2)C23C(=O)N(c4ccccc4)C(=O)C2=C(O)C=CC3(O)N1 (centres undefined) | 49.2 µM | > 100 µM | > 100 µM | > 100 µM | 37.8 µM | > 100 µM | 75.1 µM | 81.5 µM | > 100 µM | 57.3 µM | – | – | – | – | – | – | – | – | –
O=S(=O)(/N=C(\NO)Nc1ccc(Cl)cc1)c1cccc2nsnc12 | 83.9 µM | > 100 µM | > 100 µM | > 100 µM | > 100 µM | > 100 µM | > 100 µM | > 100 µM | 75.5 µM | 39.2 µM | – | – | – | – | – | – | – | – | –
N#Cc1c(-c2ccccc2)[nH]c(=O)n(C2OC(CO)C(O)C(O)C2O)c1=O (centres undefined) | > 100 µM | > 100 µM | > 100 µM | > 100 µM | > 100 µM | > 100 µM | > 100 µM | > 100 µM | > 100 µM | > 100 µM | – | – | – | – | – | – | – | – | –
CCCCCCCCCCCCCCCCOC[C@@H](COC(c1ccccc1)(c1ccccc1)c1ccccc1)O[P+](=S)OC (some centres undefined) | 16.7 µM | 22.9 µM | 14.5 µM | 5.5 µM | 30.1 µM | 6.88 µM | 41.8 µM | 17.6 µM | 28.7 µM | 33.3 µM | – | – | – | – | – | – | – | – | –
NNC(=O)c1nnn(CCc2ccccc2)c1C(=O)NN | > 100 µM | > 100 µM | > 100 µM | > 100 µM | > 100 µM | > 100 µM | > 100 µM | > 100 µM | > 100 µM | > 100 µM | – | – | – | – | – | – | – | – | –
Cc1ccc(/C=N/Nc2ccc3ccccc3n2)s1 | 68.7 µM | > 100 µM | 58.8 µM | 56.7 µM | > 100 µM | 38.4 µM | > 100 µM | 67.6 µM | > 100 µM | > 100 µM | – | – | – | – | – | – | – | – | –
Nc1ccc(C(=O)c2cn(CCN3CCOCC3)c3ccccc23)c2ccccc12 | 58.3 µM | > 100 µM | > 100 µM | 83 µM | > 100 µM | > 100 µM | 56.7 µM | > 100 µM | > 100 µM | > 100 µM | – | – | – | – | – | – | – | – | –
COc1ccc(N2C(=O)C3c4[nH]c5ccc(F)cc5c4C4CCC(c5ccccc5)CC4C3C2=O)cc1 (centres undefined) | 40.7 µM | 32.6 µM | 45.1 µM | 53.9 µM | 55.5 µM | > 100 µM | 14.2 µM | 27.1 µM | 47.8 µM | 59.6 µM | – | – | – | – | – | – | – | – | –
CC1OC(OC2C(OC(=O)[C@]34CCC(C)(C)C[C@H]3C3=CC[C@@H]5[C@@]6(C)CC[C@H](OC7OC(C(=O)O)C(O)C(OC8OCC(O)C(O)C8O)C7O)C(C)(C)[C@@H]6CC[C@@]5(C)[C@]3(C)CC4)OCC(O)C2O)C(O)C(OC2OCC(O)C(O)C2O)C1OC1OCC(O)C(OC2OCC(O)C(O)C2O)C1O (some centres undefined) | 25.6 µM and 46.8 µM | 21.6 µM and 37.6 µM | 17 µM and 34 µM | 20.1 µM and 32 µM | 4.99 µM and 21.1 µM | 18.9 µM and 30.2 µM | 21.4 µM and 33.6 µM | 24.8 µM and 62 µM | 20.3 µM and 32.4 µM | 14.5 µM and 34.2 µM | 9.13 µM and 20.3 µM | 5.97 µM and 19.2 µM | 7.32 µM and 16.7 µM | 2.12 µM and 9 µM | 5.98 µM and 15.4 µM | 7.42 µM and 17.1 µM | 10.9 µM and 24.2 µM | 7.26 µM and 17.7 µM | 6.31 µM and 17.3 µM
O=C(O)Cc1ccc2[nH]c(O)c(C3=Nc4ccccc4C3=O)c2c1 | > 100 µM | > 100 µM | > 100 µM | > 100 µM | > 100 µM | > 100 µM | > 100 µM | > 100 µM | > 100 µM | > 100 µM | – | – | – | – | – | – | – | – | –
Cc1c2c(OCCN3CCCCC3)nn(C)c(=O)c2c(C)n1-c1ccccc1 | > 100 µM | > 100 µM | 33.4 µM | > 100 µM | 29.1 µM | 47.9 µM | > 100 µM | > 100 µM | > 100 µM | 33.1 µM | – | – | – | – | – | – | – | – | –
NC1=CN2c3ccccc3N(CC(=O)O)C2C=C1 (centres undefined) | > 100 µM | > 100 µM | > 100 µM | > 100 µM | > 100 µM | > 100 µM | > 100 µM | > 100 µM | > 100 µM | > 100 µM | – | – | – | – | – | – | – | – | –
